≈ marks a conversion by molar mass, not a printed value.
Key:
[1] = Solubility in biological vehicles (SGF, FaSSIF, FeSSIF) at 37° C., HPLC; format: physicochemical; details: for Solubility / solubility at 2 h: 2 h; for solubility at 0.5 h / solubility at 2 h: 37 °C, thermodynamic from solid
Description: An Agilent HPLC 1260 series instrument was used in an HPLC analysis method. The HPLC method for testing solubility and stability was as follows:
In the experiment, the solubilities of the free-base crystal form and the acetate crystal form were determined at 37° C. in biological vehicles (simulated gastric fluid (SGF), fasted state stimulated intestinal fluid (FaSSIF) and fed state stimulated intestinal fluid (FeSSIF)). 3 mg of a sample was added to a sample bottle, and 1 mL of biologically relevant vehicle was added to the same. The suspension was shaken at a speed of 500 rpm at 37° C.

human ADORA3 = target: T1, human ADORA3 (Homo sapiens, UniProt P0DMS8); assay: Calcium flow test (FLIPR), ADORA3 stably transfected CHO; format: cell-based; details: Table 9
T1 construct: host or cells: CHO
T1 sequence (P0DMS8 1-318): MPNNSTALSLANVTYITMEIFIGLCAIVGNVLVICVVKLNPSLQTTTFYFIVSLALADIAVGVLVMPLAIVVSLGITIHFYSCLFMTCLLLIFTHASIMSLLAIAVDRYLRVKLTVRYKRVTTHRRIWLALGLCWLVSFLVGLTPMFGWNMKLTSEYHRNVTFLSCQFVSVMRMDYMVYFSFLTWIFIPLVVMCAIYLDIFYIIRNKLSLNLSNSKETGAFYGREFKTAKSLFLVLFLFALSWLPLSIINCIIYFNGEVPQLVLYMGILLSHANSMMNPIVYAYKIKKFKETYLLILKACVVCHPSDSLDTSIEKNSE
Description: In this experiment, stably transfected cell lines over-expressing adenosine receptor coupled to human Gq were used, and the antagonistic function of Compound 22 was evaluated by testing the changes in intracellular calcium ion concentration. The binding of the A2AR agonist to A2AR could activate a downstream pathway to increase the intracellular calcium ion concentration. The antagonist would competitively occupy the binding site where the agonist binds to A2AR, thereby interrupting the intracellular signal transduction and leading to a change in the intracellular calcium ion concentration. By detecting the strength of the intracellular calcium ion signal, the antagonistic activities of the compound on human ADORA1, ADORA2A, ADORA2B and ADORA3 adenosine receptors were determined. […]
7) The FLIPR instrument software was operated; following a set program, 10 μL of experimental buffer salt solution was added to the cell plate; and fluorescence signals were read. Then, 10 μL of the reference compound of agonist at a predetermined concentration was added to the cell plate, and the fluorescence signals were read. After reading, data was exported by means of “Max-Min” and “Read 91 to Maximum allowed” in the software, the EC80 of each cell line was calculated, and an agonist with a concentration of 6×EC80 was prepared.
9) The FLIPR instrument software was operated; following a set program, 10 μL of the test compound and 10 μL of the reference compound were added at a predetermined concentration to the cell plate; and the fluorescence signals were read. Then, 10 μL of the reference compound of agonist at a concentration of 6×EC80 was added to the cell plate, and the fluorescence signal were read. For the antagonist detection of the compound, data was exported by means of “Max-Min” and “Read 1 to 90” in the software. […]

[2] = fasted state simulated intestinal fluid (FaSSIF), fassif
[3] = fed state simulated intestinal fluid (FeSSIF), fessif
[4] = simulated gastric fluid (SGF), simulated gastric fluid, SGF

CC(=O)O.Nc1nc(NCCc2ccc(NC3COC3)cc2)nc2nc(-c3ccco3)nn12 [Acetate of Compound 22, 2-(furan-2-yl)-N5-(4-(oxetane-3-ylamino)phenethyl)-[1,2,4]triazolo[1,5-a][1,3,5]triazine-5,7-diamine acetate]
Solubility ([1]; SGF, acetate): >2887 µg/mL | solubility at 0.5 h [1, 2]: 9.3 µg/mL | solubility at 2 h [1, 2]: 9.9 µg/mL | solubility at 0.5 h [1, 3]: 33.1 µg/mL | solubility at 2 h [1, 3]: 33.8 µg/mL | solubility at 0.5 h [1, 4]: > 2890 µg/mL | solubility at 2 h [1, 4]: > 2890 µg/mL

Nc1nc(NCCc2ccc(NC3COC3)cc2)nc2nc(-c3ccco3)nn12 [Compound 22, 2-(furan-2-yl)-N5-(4-(oxetan-3-ylamino)phenethyl)-[1,2,4]triazolo[1,5-a][1,3,5]triazine-5,7-diamine]
Solubility ([1]; SGF, listed as Free base): 712.1 µg/mL (≈ 1810 µM) | solubility at 0.5 h [1, 2]: 3.7 µg/mL (≈ 9.43 µM) | solubility at 2 h [1, 2]: 4.2 µg/mL (≈ 10.7 µM) | solubility at 0.5 h [1, 3]: 7 µg/mL (≈ 17.8 µM) | solubility at 2 h [1, 3]: 8.8 µg/mL (≈ 22.4 µM) | solubility at 0.5 h [1, 4]: 622 µg/mL (≈ 1590 µM) | solubility at 2 h [1, 4]: 712 µg/mL (≈ 1810 µM) | IC50 (human ADORA3): 0.931 ± 0.0541 µM

Cn1nnc(-c2ccc(CCNc3nc(N)n4nc(-c5ccco5)nc4n3)cc2)n1 [Compound 40, N5-(4-(2-methyl-2H-tetrazol-5-yl)phenethyl)-2-(furan-2-yl)-[1,2,4]triazolo[1,5-a][1,3,5]triazine-5,7-diamine]
IC50 (human ADORA3): 6.3 ± 2.89 µM
